This note sets out measurements from patent publication US6380217B1, “Methods for controlling GGT-positive bacteria” (priority 1999, dated 2002).

The term IC50 denotes the concentration that gives 50% inhibition. Higher therefore signals weaker potency in that assay.

The structures appear in SMILES notation.

The target in this assay is GGT (gamma glutamyl transpeptidase) of H. pylori ATCC 43504 cells (Helicobacter pylori, UniProt O25743). The assay can be described thus: Cell Based GGT Inhibitor (CBGI) Assay. To be noted: whole H. pylori ATCC 43504 cells, ~30 min room temperature, AMC release fluorescence; table titled 'Binding Data of GGT Modulating Compounds'. The procedure:
Cell Based GGT Inhibitor Assay
The protocol of the Cell Based GGT Inhibitor Assay (CBGI assay) is adapted from the Methods in Enzymology protocol 252: 66 (1995).
H. pylori Sample Preparation
H. pylori ATCC 43504 were grown on blood agar plates. For accurate results, the H. pylori cells were in a logarithmic, spiral phase. This was achieved by plating cells from a culture that was >75% spiral in a phosphate buffered saline (PBS) solution on blood agar plates and incubating them overnight in microaerophilic conditions at 37° C. The next day, the cells were harvested by adding 1 ml of PBS to the plate and scraping off cells gently with a loop. The cells were then placed in a sterile 50 ml conical tube and the plate was washed ˜5 times with 1 ml of PBS. The washes were then pooled in the same 50 ml tube. An OD600 was subsequently taken using PBS as the blank. The cells were then resuspended to reach a final OD600 of 0.05. A single blood agar plate typically yields approximately 50-75 mls of cells at A600 OD=0.05. 3 mls of cells at OD=0.05 are required for each 96-well plate; 30 μl added to each well yields a final OD of 0.015. 4-5 blood agar plates would yield more than enough H. pylori cells for 50 96-well microtitre plates.
On each test plate, two known inhibitors were added to separate control wells (4 μl 0.25 mM azaserine and 4 μl 1.25 mM γ-glu-hydroxamate). Control wells containing only cells were also included on each test plate. In each well, 70 μl of buffer was added using an automated dispenser. Then, 30 μl H. pylori cells were added at OD A600=0.05. After the cells were added to each well, the plate was kept at room temperature for ˜30 minutes. The reaction was terminated by dispensing 75 μl 100 mM glycine to each well.
GGT inhibition was determined by analyzing the release of amido-4-methylcoumarin (AMC) at A460 nm after excitation at A360 in Cytoflour//Walloc fluorescent plate reader. The data was compared to the average of the two control wells from each plate and the γ-glu-hydroxamate control, which should always be ˜50%. Any compound that inhibited ≦50% activity was retested.

Chain of GGT (gamma glutamyl transpeptidase) of H. pylori ATCC 43504 cells (O25743 entry or part of it): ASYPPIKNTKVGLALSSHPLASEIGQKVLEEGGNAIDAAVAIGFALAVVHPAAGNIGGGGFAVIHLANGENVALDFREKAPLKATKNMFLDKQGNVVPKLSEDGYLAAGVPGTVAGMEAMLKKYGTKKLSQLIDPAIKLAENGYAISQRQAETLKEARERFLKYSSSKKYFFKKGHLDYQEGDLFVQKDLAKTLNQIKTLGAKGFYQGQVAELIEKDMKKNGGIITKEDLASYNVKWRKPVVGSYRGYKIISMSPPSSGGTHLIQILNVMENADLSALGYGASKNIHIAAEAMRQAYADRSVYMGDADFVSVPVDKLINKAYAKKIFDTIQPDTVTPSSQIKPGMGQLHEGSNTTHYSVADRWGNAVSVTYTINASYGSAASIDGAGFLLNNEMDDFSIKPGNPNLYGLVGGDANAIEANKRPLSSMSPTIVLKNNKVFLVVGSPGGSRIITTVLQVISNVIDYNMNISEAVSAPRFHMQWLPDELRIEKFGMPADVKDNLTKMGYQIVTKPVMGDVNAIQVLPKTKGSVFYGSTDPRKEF

`CCN1CCCC(NC(=O)c2ccc(Nc3ccnc4cc5ccccc5cc34)cc2)C1` (stereo not shown) [A] had a half-inhibitory concentration (IC50) of 1.13 µM. That is a single-digit micromolar value.
The figure for `COc1cc(/C=C2/SC(=S)NC2=O)ccc1O` [B] is 22.4 µM; for `Cc1nc(-c2nc(C(=O)/C=C/N(C)C)cs2)cs1` [C] it is 17.9 to 35.8 µM.
The molecule `CC(C)OC(=O)CSc1nc2cc(C(=O)NC(Cc3cnc[nH]3)C(N)=O)ccc2n1CCc1c[nH]c2ccccc12` (stereo not shown) [D] had a concentration for half-maximal inhibition (IC50) of 4.53 µM. This counts as single-digit micromolar.
For the molecule `CCN(CC)CCn1c(SCC(=O)c2ccc(-c3ccccc3)cc2)nc2cc(C(=O)NC(Cc3cn(Cc4ccccc4)cn3)C(N)=O)ccc21` (stereo not shown) [E], the IC50 is 11.2 µM.
Molecule `Cc1ccc(CSc2nnc(/N=C/N(C)C)s2)cc1` [F] gave an IC50 of 2.02 µM.
Molecule `COc1cccc(-c2cc3[nH]c(C)cc(=O)n3n2)c1` [G] had an IC50 of 2.15 µM.
